Experimental data reported in patent US11679168B2, “Caspase-3-triggered molecular self-assembling PET probes and uses thereof” (The Board of Trustees of the Leland Stanford Junior …, priority 2018, dated 2023).

Key:
[1] = Stability of [18F]-C-SNAT4 in mouse serum (HPLC); format: in vitro ADME; conditions: 37° C., over 2 h incubation
Protocol: FIG. 1B illustrates the serum stability of [^18F]-C-SNAT4 in mouse serum. [^18F]-C-SNAT4 was incubated in serum at 37° C. and analyzed by HPLC.
At 24 h post treatment, mixture tracer of [^19F]-C-SNAT4 was injected with [^18F]-C-SNAT4 (mixture ratio at 1:200) through the tail vein for PET imaging (FIG. 24A-24C). For treated animal, tumor uptake of mixture tracer [^18F]/[^19F]-C-SNAT4 and [^18F]-C-SNAT4 were 2.9±0.3% ID/cc and 1.7±0.1% ID/cc, respectively at 85 min post injection. There was 1.7-fold increase of radioactivity in the mixture-treated mice. Overall, the uptake of [^18F]-C-SNAT4 was increased both in radiation and drug-treated tumors. In contrast, the tumor uptake of [^18F]/[^19F]-C-SNAT4 (ratio at 1:200) and [^18F]/[^19F]-C-SNAT4 (ratio at 1:80) in untreated tumor was 0.5±0.2% ID/cc and 0.3±0.2% ID/cc, respectively at 85 min after injection (FIG. 25A-25C), followed by a rapid signal decay back to baseline within a few minutes. There were no changes compared to the uptake of [^18F]-C-SNAT4 (0.4±0.1% ID/cc). […] The sample was centrifuged at 13,400 g for 10 min and […] of the resultant supernatant was diluted with […] of water and analyzed on HPLC. % intact tracer was calculated as %=(peak area for tracer/total peak area on the HPLC chromatogram)×100.

H1299 cells = assay: Radiotracer uptake in H1299 cells; format: cell-based, human
Protocol: Temporal changes in cell-associated radioactivity in drug-treated cells or vehicle cells were measured with [18F]-C-SNAT4. Data are means±SD (n=3 per group). *, P<0.05; **, P<0.01; ***, P<0.005; *****, P<0.0001.
Radiotracer uptake in cells: H460 and H1299 cells (2×10^5) were plated in 6-well cell culture plates over night before [^18F]-C-SNAT4 uptake analysis. […] After 24 h treatment, fresh, prewarmed RPMI Medium 1640 containing 1.48 MBq (40 μCi) [^18F]-C-SNAT4 was added to individual wells (1 ml/well; 13.3 pmol). At post 10, 30, 60 min, medium was removed, cells were lifted by trypsinization, and washed three-times with cold PBS. Radioactivity contained in cell pellets was measured using a gamma counter, with counts normalized to total protein concentration as determined by cell digestion using RIPA buffer followed by protein quantitation by the Bradford method. The final radiotracer [^18F]-C-SNAT4 uptake concentration was expressed as μM of % uptake/mg protein. Results were normalized to a vehicle control (PBS for [^18F]-C-SNAT4 experiments at different time-points) which was washed.

H1299 tumor = assay: PET/CT imaging of H1299 tumor-bearing mice; format: in vivo; conditions: for radioactivity retention in tumor: 85 min post-injection
Protocol: FIGS. 4A and 4D illustrate representative 55- to 60-min axial and sagittal fused PET/CT images. Nude mice received approximately 200 μCi of [18F]-C-SNAT4 via tail vein injection, with PET/CT images acquired at 55 to 60 min after injection. Arrowheads indicate the tumor, identified from the CT images. H460 and H1299 tumor bearing mice were naïve, or 24 h following last dose of cisplatin treatment (Low dose: 3 mg/kg every other day for three times; high dose: 9 mg/kg every other day for three times).
Animal model and probe administration: For subcutaneous tumor models, H460 or H1299 (2×10^6 cells in 100 μl of PBS) were injection subcutaneously on the back of female nu/nu nude mice (aged 6 to 8 weeks; Charles River Laboratories). Tumor dimensions were measured periodically using a caliper (by the same researcher), with tumor volumes calculated by the following equation: volume=a×b×c/2, where a, b, and c represent three orthogonal axis of the tumor. Treatment-response analysis was performed 24 h after drug treatment. For all other experiments, animals were culled 26 h after therapy and tissues excised for analysis. For chemotherapy mouse model, tumors were grown to about 150 mm^3, and then treatment that consisted of cisplatin (Sigma-Aldrich; Low dose: 3 mg/kg; high dose: 9 mg/kg) or saline was initiated through intravenous administration, every other day for three times. Total mouse body weight and tumor size were measured every other day. Treat or left untreated. For radiotherapy mouse model, treatment consisted of two fractions of 5 Gy or 2 Gy dose of radiation therapy delivered with a single 225 kV beam using the Kimtron IC 225 irradiator (Kimtron Medical, CT, USA).
Small-animal PET/CT imaging and analysis: PET/CT imaging was carried out on a docked Siemens Inveon PET/CT scanner (matrix size, 128×128×159; CT attenuation-corrected; non-scatter corrected) (Siemens Medical Solutions USA) following a bolus intravenous injection of approximately 200 μCi of [^18F]-C-SNAT4 into tumor-bearing mice (n=56, 3-4 mice per group). Dynamic scans were acquired in list mode format over 90 min, and sorted into 22 times of frames, 0.5-mm sinogram bins for image reconstruction (4×15 s, 4×60 s, 11×300 s, 3×600 s). Mice were anesthetized with 2% isoflurane near the center of the FOV to ensure the highest image resolution and sensitivity. Iterative reconstruction was performed using 3D ordered-subsets expectation maximization (3D-OSEM) followed by fast maximum a posteriori (fast MAP) with the following parameters: MAP OSEM iterations, 2; MAP subsets, 16; MAP iterations, 18. Siemens Inveon Research Workplace software v.4.0 was used for visualization of radiotracer uptake in the tumor, to define the three-dimensional (3D) volumes of interest (VOI) and for 3D-visualisation to create volume rendering technique (VRT) images. The relative tumor or organ radioactivity concentrations were from mean pixel values within the multiple ROI volumes. The radioactivity concentration within organs was obtained from mean pixel values with in the VOI and converted to counts per milliliter per min and then divided by the injected dose (ID) to obtain an imaging VOI-derived percentage of the injected radioactive dose per cubic centimeter of tissue (% ID/cc).

[2] = Blood half-life in healthy nude mice after intravenous injection; format: in vivo
Source text: FIG. 21 illustrates blood half-life in healthy nude mice after intravenous injection of [^18F]-C-SNAT4 (n=4).

- percentage of [18F]-C-SNAT4 remained [1]: 77.2%
- elimination from the blood ([2]; by 2 h after administration): nearly complete elimination
- peak blood concentration ([2]; healthy nude mice, after 5 min): 15.21±2.66 % ID/g
- blood life ([2]; healthy nude mice, i.v.): 0.4 ± 0.1 h
- blood half-life ([2]; healthy nude mice, i.v., n=4): 21.6 ± 6.6 min
Structure (SMILES): CCSSCC(NC(=O)C(CC(=O)O)NC(=O)C(NC(=O)C(CCC(=O)O)NC(=O)C(CC(=O)O)NC(C)=O)C(C)C)C(=O)NCC(=O)NC(Cc1cn(CCOCCOCCOCC[18F])nn1)C(=O)NCc1ccc(C(=O)NCCCOc2cnc(C#N)nc2)cc1 (stereo not shown) [[^18F]-C-SNAT4]
- difference in uptake, drug-treated versus untreated (H1299 cells; H1299, high dose, 60 min): no difference
- cell uptake (H1299 cells; cisplatin high dose (13.5 μM, 24 h) treated H1299, 30 min post incubation): 4.0±0.3 % radioactivity/mg protein
- cell uptake (H1299 cells; cisplatin low dose (4.5 μM, 24 h) treated H1299, 60 min): 0.3±0.1 % uptake/mg protein
- cell uptake (H1299 cells; control group H1299 (high dose experiment), 30 min post incubation): 2.5±0.6 % radioactivity/mg protein
- cell uptake (H1299 cells; naïve H1299 (low dose experiment), 60 min): 0.2±0.1 % uptake/mg protein
- AUC of time activity curve (H1299 tumor; H1299, high doses cisplatin): 64.2±27.8 % ID min/cc
- radioactivity retention in tumor (H1299 tumor; H1299, high doses cisplatin): 0.5±0.3 % ID/cc
- AUC of time activity curve (H1299 tumor; H1299, low doses cisplatin): 66.0±6.8 % ID min/cc
- radioactivity retention in tumor (H1299 tumor; H1299, low doses cisplatin): 0.4±0.2 % ID/cc
- AUC of time activity curve (H1299 tumor; H1299, saline): 41.2±25.4 % ID min/cc
- radioactivity retention in tumor (H1299 tumor; H1299, saline): 0.4±0.1 % ID/cc
